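96-well plates; 48 h exposure; 5 concentrations. Endpoints by linear interpolation between flanking doses. Not reached: highest tested concentration assigned. The concentration for 50% growth inhibition is given as GI50.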 The source made the active and inactive calls. Cut-off read from the data, not from the text of the source: active = GI50 up to about 1.1 µM and inactive = higher.
Columns and labels:
Assay in all cases: inhibition of tumour cell growth, NCI panel, 48 h
[1] = system: SNB-75
[2] = system: SK-MEL-28
[3] = system: TK-10
[4] = system: COLO 205
[5] = system: NCI-H226
[6] = system: OVCAR-4
[7] = system: Hs-578T
[8] = system: RXF 393
[9] = system: SF-539
[10] = system: SF-295
[11] = system: T47D
[12] = system: A498
[13] = system: HOP-92
[14] = system: UACC-62
[15] = system: MOLT-4
[16] = system: KM12
[17] = system: LOX IMVI
[18] = system: HT-29
[19] = system: A549
[20] = system: SW-620

Row | Structure (SMILES) | GI50 [1] | GI50 [2] | GI50 [3] | GI50 [4] | GI50 [5] | GI50 [6] | GI50 [7] | GI50 [8] | GI50 [9] | GI50 [10] | GI50 [11] | GI50 [12] | GI50 [13] | GI50 [14] | GI50 [15] | GI50 [16] | GI50 [17] | GI50 [18] | GI50 [19] | GI50 [20]
1 | COCCOCCOC1=C(Cl)C(=O)c2c(O)ccc(O)c2C1=O | 15600 nM (inactive) | 2330 nM (inactive) | 1520 nM (inactive) | 1030 nM (active) | 18100 nM (inactive) | 1850 nM (inactive) | 3110 nM (inactive) | 1440 nM (inactive) | 1670 nM (inactive) | 11700 nM (inactive) | 2540 nM (inactive) | 3590 nM (inactive) | 1980 nM (inactive) | 1630 nM (inactive) | 303 nM (active) | 12800 nM (inactive) | 1950 nM (inactive) | 3480 nM (inactive) | 8020 nM (inactive) | 287 nM (active)
2 | CC(=O)OCCOCCN1CCN(C2=C(Cl)C(=O)c3c(O)ccc(O)c3C2=O)CC1 | 2060 nM (inactive) | 1040 nM (active) | 460 nM (active) | 231 nM (active) | 2890 nM (inactive) | 627 nM (active) | 3100 nM (inactive) | 690 nM (active) | 1710 nM (inactive) | 1930 nM (inactive) | 652 nM (active) | 1860 nM (inactive) | 294 nM (active) | 1380 nM (inactive) | 165 nM (active) | 2150 nM (inactive) | 423 nM (active) | 796 nM (active) | 2100 nM (inactive) | 179 nM (active)
3 | COc1ccc2c(c1)[n+]([O-])c(/C(C)=N/NC(N)=S)c(C)[n+]2[O-] | 79400 nM (inactive) | > 56200 nM (inactive) | > 58900 nM (inactive) | 38800 nM (inactive) | > 61700 nM (inactive) | 58900 nM (inactive) | > 100000 nM (inactive) | > 72900 nM (inactive) | > 59800 nM (inactive) | 63100 nM (inactive) | 49200 nM (inactive) | > 100000 nM (inactive) | > 85900 nM (inactive) | 44800 nM (inactive) | 17800 nM (inactive) | > 85900 nM (inactive) | 39900 nM (inactive) | 52100 nM (inactive) | 53700 nM (inactive) | 50400 nM (inactive)
4 | CCOC(=O)C(CC(C)C)NC(=O)C(Cc1ccc(N(CCCl)CCCl)cc1)NC(C)=O (centres undefined) | 5960 nM (inactive) | 5640 nM (inactive) | 15200 nM (inactive) | 3700 nM (inactive) | 14400 nM (inactive) | 8890 nM (inactive) | 5120 nM (inactive) | 1930 nM (inactive) | 2180 nM (inactive) | 7050 nM (inactive) | 2170 nM (inactive) | 15700 nM (inactive) | 630 nM (active) | 1400 nM (inactive) |  | 20700 nM (inactive) | 2680 nM (inactive) | 11700 nM (inactive) | 13400 nM (inactive) | 7730 nM (inactive)
5 | Cc1ccc2[nH]c3c(C)c4cc[n+](C)cc4c(C)c3c2c1 | 251 nM (active) | 2120 nM (inactive) | 5420 nM (inactive) | 828 nM (active) | 740 nM (active) | 2540 nM (inactive) | 232 nM (active) | 1420 nM (inactive) | 849 nM (active) | 462 nM (active) | 1550 nM (inactive) | 891 nM (active) | 4320 nM (inactive) | 2680 nM (inactive) | 5870 nM (inactive) | 670 nM (active) | 5000 nM (inactive) | 3330 nM (inactive) | 325 nM (active) | 374 nM (active)
